According to patent publication US20250051395A1, “PEPTIDES AND METHODS FOR USE IN TREATING PAIN” (TAFALGIE THERAPEUTICS, priority 2021, published 2025):

Columns and labels:
[1] = test system: Spared Nerve Injury (SNI) model, C57Bl6 mice; assay: Spared Nerve Injury (SNI) model of neuropathic pain, Von Frey up-down paw withdrawal threshold; type: in vivo; conditions: for antalgic effect when administered orally: per os, 7 days after surgery, vs vehicle (FIG. 5)
Procedure: Mice were anesthetized with ketamine (100 mg/kg IP) and xylazine (10 mg/kg IP) and the left sciatic nerve was exposed under aseptic conditions. The distal trifurcation of the sciatic nerve was identified and the tibial and common peroneal branches were ligated with polypropylene nonabsorbable 6-0 sutures (Ethicon); 1 mm was cut out, leaving the sural branch intact. The wound was closed with sutures, and the animals were allowed to recover and returned to their cages.
(§1) The Von Frey's uses Von Frey (VF) hair or fibers, which are small pieces of nylon rod, approximately 50 mm in length to test a rodent's sensitivity to a mechanical stimulus. In this test, the animal stands on an elevated mesh platform, and the Von Frey hairs are inserted through the mesh to poke the animal's hindpaw. Normal reactions for the animal include withdrawing or licking or shaking the paw. The “up-down” Von Frey method is used to determine the mechanical force required to elicit a paw withdrawal response in 50% of animals. Here, mice were placed in plastic chambers on a wire mesh grid and stimulated with von Frey filaments (Bioseb) by the “up-down” method (45) starting with a 1 g filament, and using 0.04 and 4 g filaments as the cutoffs.
The experiments were conducted on eight-week-old male WT C57Bl6 mice. Three groups of 8 mice were used. Peptide of SEQ ID NO: 1 is resuspended in 0.9% NaCl at [0.6 mg/mL]. The peptide was diluted and used at a concentration of 0.3 mg/kg in this study.
After having measured the base threshold of mice with Von Frey (VF) filaments by the up/down method, the SNI model is set into place. The mice are anesthetized, ligature of the tibial nerve and of the fibular nerve is put into practice and these two nerves are then severed. The sural nerve left intact develops neuropathy quite rapidly. The occurrence of neuropathy is ascertained after 3 days post-surgery. A decrease in the response threshold to Von Frey filaments of the ipsilateral paw is thereby observed.
7 days after surgery, the response threshold is again measured. 100 μl/10 g of each of the peptide solutions, of vehicle and pregabalin solution are then blind-injected subcutaneously for the experimenter.
The same protocol was used as described in 1.1 except that the administration of the peptide, vehicle and pregabalin was done 14 days after surgery using per os administration for the peptide and vehicle.
For per os administration, the peptide of SEQ ID NO: 1 was diluted at a concentration of 30 μg/mL in a solution of 1% w/v Hydroxypropylmethylcellulose (Sigma-aldrich #423238, batch MKCD3665), 0.5% v/v Tween 80 (Euromedex #2002-A, batch 100412/16S407), referred then after as HPMC solution (vehicle).
Vehicle and peptide solution were orally administered using two gavage needles. […]

[2] = test system: injury-induced mechanical hypersensitivity in mice; conditions: cited from earlier work
[3] = test system: carrageenan model (inflammatory pain), C57Bl6 mice; assay: Carrageenan injection inflammatory pain model, Von Frey paw withdrawal threshold; type: in vivo; conditions: celecoxib subcutaneous, 20 mg/kg
Procedure: Inventors injected 20 μl of 1% λ-carrageenan (Sigma-Aldrich, 22049-5G-F) in 1×PBS into the plantar surface of the left hind paw of the mouse with a Hamilton syringe. The carrageenan injection was used as an inflammatory pain model.
as §1
The experiments were conducted on eight-week-old male WT C57Bl6. Three groups of 8 mice were used.
As previously described, measurement with Von Frey filaments by the up/down method for determining the baseline was done. Then, an intraplantar injection of 20 μl of carrageenan (1%) was performed into a hind paw. […] Celecoxib is a well-known drug used as positive control.

[4] = test system: paw incision model (postoperative pain), C57Bl6 mice; assay: Paw incision (Brennan) postoperative pain model, Von Frey paw withdrawal threshold, curative treatment; type: in vivo; conditions: morphine oral, 1 mg/kg, D1 after paw incision
Procedure: Mice were anesthetized with ketamine (100 mg/kg IP) and xylazine (10 mg/kg IP) and a longitudinal incision was made through the skin and fascia of the right hind paw. Forceps were used to elevate the flexor digitorum brevis muscle longitudinally and an incision was made through the muscle with a scalpel, to cut it into two halves. The wound was closed with sutures, and the animals were allowed to recover and returned to their cages. The paw incision was used as postoperative pain model.
as §1
The experiments were conducted on eight-week-old male WT C57Bl6. Three groups of 8 mice were used. […]

[5] = pregabalin 5 mg/kg by gavage, day 14 post-SNI

CC(C)C[C@H](CN)CC(=O)O [pregabalin, reference compound]
effect on mechanical threshold at 4 h post-administration [1, 5]: completely abolished | time of maximum reversal effect on mechanical threshold [1, 5]: 2 h

TAFA-4 full length protein: human TAFA-4 mature protein of 105 amino acid residues, secreted neurokine of the prior art
mechanical hypersensitivity (inflammatory, post-operative, nerve injury-induced) ([2]; intrathecal and subcutaneous administration, male and female mice): reverses inflammatory, post-operative and nerve injury-induced mechanical hypersensitivity | prolonged nerve injury-induced mechanical hypersensitivity of TAFA-4 gene deleted mice ([2]; intrathecal injection, TAFA-4 gene deleted mice): reversed | antalgic effect when administered orally [1]: did not show significant antalgic effect | antalgic effect when administered orally ([1]; listed as TAFA4): No statistical differences

Cc1ccc(-c2cc(C(F)(F)F)nn2-c2ccc(S(N)(=O)=O)cc2)cc1 [celecoxib]
time of maximum antalgic effect [3]: 2 h

CN1CC[C@]23c4c5ccc(O)c4O[C@H]2[C@@H](O)C=C[C@H]3[C@H]1C5 [morphine]
response threshold [4]: increase in the response threshold
